According to PubChem BioAssay (NCI):
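Here, GI50 denotes the concentration required for 50% inhibition of growth. The concentration for full growth arrest is given as TGI.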

How the values were obtained:
Test in all cases: NCI anticancer screen, dose series, 384-well format
A498 renal = tested on: A498 renal
COLO 205 colon = tested on: COLO 205 colon
EKVX NSCLC = tested on: EKVX NSCLC
NCI/ADR-RES ovarian = tested on: NCI/ADR-RES ovarian
NCI-H522 lung = tested on: NCI-H522 lung
MALME-3M melanoma = tested on: MALME-3M melanoma
SNB-19 CNS = tested on: SNB-19 CNS
MDA-MB-468 breast = tested on: MDA-MB-468 breast
UO-31 renal = tested on: UO-31 renal
MDA-MB-231 breast = tested on: MDA-MB-231 breast
IGROV1 ovarian = tested on: IGROV1 ovarian
SF-539 CNS = tested on: SF-539 CNS
SF-268 CNS = tested on: SF-268 CNS
786-0 renal = tested on: 786-0 renal
LOX IMVI melanoma = tested on: LOX IMVI melanoma
T-47D breast = tested on: T-47D breast
PC-3 prostate = tested on: PC-3 prostate
HL-60(TB) leukemia = tested on: HL-60(TB) leukemia
CCRF-CEM leukemia = tested on: CCRF-CEM leukemia
HCT-116 colon = tested on: HCT-116 colon
UACC-257 melanoma = tested on: UACC-257 melanoma
SR leukemia = tested on: SR leukemia
HS 578T breast = tested on: HS 578T breast
U251 glioblastoma = tested on: U251 glioblastoma
SF-295 CNS = tested on: SF-295 CNS
ACHN renal = tested on: ACHN renal
K-562 leukemia = tested on: K-562 leukemia
NCI-H226 lung = tested on: NCI-H226 lung
HOP-62 NSCLC = tested on: HOP-62 NSCLC
SNB-75 CNS = tested on: SNB-75 CNS
OVCAR-4 ovarian = tested on: OVCAR-4 ovarian
OVCAR-8 ovarian = tested on: OVCAR-8 ovarian
SK-OV-3 ovarian = tested on: SK-OV-3 ovarian
MDA-MB-435 melanoma = tested on: MDA-MB-435 melanoma
SK-MEL-5 melanoma = tested on: SK-MEL-5 melanoma
SW-620 colon = tested on: SW-620 colon
DU-145 prostate = tested on: DU-145 prostate
M14 melanoma = tested on: M14 melanoma
TK-10 renal = tested on: TK-10 renal
HCT-15 colon = tested on: HCT-15 colon
MCF7 breast = tested on: MCF7 breast
CAKI-1 renal = tested on: CAKI-1 renal
NCI-H23 lung = tested on: NCI-H23 lung
RXF 393 renal = tested on: RXF 393 renal
HOP-92 NSCLC = tested on: HOP-92 NSCLC
MOLT-4 leukemia = tested on: MOLT-4 leukemia
A549 NSCLC = tested on: A549 NSCLC
SK-MEL-28 melanoma = tested on: SK-MEL-28 melanoma
NCI-H460 NSCLC = tested on: NCI-H460 NSCLC
HT29 colon = tested on: HT29 colon
BT-549 breast = tested on: BT-549 breast
KM12 colon = tested on: KM12 colon
HCC-2998 colon = tested on: HCC-2998 colon
RPMI-8226 leukemia = tested on: RPMI-8226 leukemia
UACC-62 melanoma = tested on: UACC-62 melanoma
SN12C renal = tested on: SN12C renal
NCI-H322M lung = tested on: NCI-H322M lung
OVCAR-3 ovarian = tested on: OVCAR-3 ovarian

Which GI50 (A498 renal) does the source give for `CNc1ncc2cc(-c3cc(NC(=O)NCCC(C)(C)C)c(F)cc3C)c(C)nc2n1` here?
The GI50 was 294 nM.

And the TGI (A498 renal)?
The TGI was > 100000 nM.

And the GI50 (COLO 205 colon)?
Its GI50 is 14.4 nM.

What about the TGI (COLO 205 colon) of the same molecule?
Its TGI is 543 nM.

And the GI50 (EKVX NSCLC)?
The GI50 was 2090 nM.

And the TGI (EKVX NSCLC)?
The TGI was 82400 nM.

And the GI50 (NCI/ADR-RES ovarian)?
Its GI50 is 3080 nM.

What about the TGI (NCI/ADR-RES ovarian) of the same molecule?
The TGI was 83700 nM.

And the GI50 (NCI-H522 lung)?
The GI50 was 670 nM.

And the TGI (NCI-H522 lung)?
Its TGI is 9380 nM.

And the GI50 (MALME-3M melanoma)?
Its GI50 is < 10 nM.

What about the GI50 (SNB-19 CNS) of the same molecule?
Its GI50 is 1550 nM.

And the TGI (SNB-19 CNS)?
The TGI was 71000 nM.

And the GI50 (MDA-MB-468 breast)?
Its GI50 is 12800 nM.

What about the TGI (MDA-MB-468 breast) of the same molecule?
The TGI was 35200 nM.

What about the GI50 (UO-31 renal) of the same molecule?
Its GI50 is 210 nM.

And the TGI (UO-31 renal)?
Its TGI is 23600 nM.

What about the GI50 (MDA-MB-231 breast) of the same molecule?
The GI50 was 47.9 nM.

What about the TGI (MDA-MB-231 breast) of the same molecule?
Its TGI is 397 nM.

What about the GI50 (IGROV1 ovarian) of the same molecule?
Its GI50 is 157 nM.

And the TGI (IGROV1 ovarian)?
Its TGI is 1050 nM.

And the GI50 (SF-539 CNS)?
The GI50 was 1750 nM.

What about the TGI (SF-539 CNS) of the same molecule?
The TGI was 19200 nM.

And the GI50 (SF-268 CNS)?
Its GI50 is 1090 nM.

And the TGI (SF-268 CNS)?
Its TGI is 16100 nM.

What about the GI50 ([…]-0 renal) of the same molecule?
Its GI50 is 676 nM.

And the TGI (786-0 renal)?
Its TGI is 39100 nM.

And the GI50 (LOX IMVI melanoma)?
The GI50 was 27.7 nM.

And the TGI (LOX IMVI melanoma)?
The TGI was 237 nM.

And the GI50 (T-47D breast)?
Its GI50 is 2400 nM.

And the TGI (T-47D breast)?
The TGI was 37700 nM.

And the GI50 (PC-3 prostate)?
Its GI50 is 13300 nM.

What about the TGI (PC-3 prostate) of the same molecule?
The TGI was > 100000 nM.

What about the GI50 (HL-60(TB) leukemia) of the same molecule?
Its GI50 is 17.1 nM.

And the TGI (HL-60(TB) leukemia)?
Its TGI is 130 nM.

What about the GI50 (CCRF-CEM leukemia) of the same molecule?
The GI50 was 495 nM.

And the TGI (CCRF-CEM leukemia)?
The TGI was 18300 nM.

And the GI50 (HCT-116 colon)?
The GI50 was 58.5 nM.

What about the TGI (HCT-116 colon) of the same molecule?
The TGI was 916 nM.

And the GI50 (UACC-257 melanoma)?
The GI50 was 16.6 nM.

And the TGI (UACC-257 melanoma)?
Its TGI is 119 nM.

And the GI50 (SR leukemia)?
Its GI50 is 181 nM.

And the TGI (SR leukemia)?
The TGI was 385 nM.

What about the GI50 (HS 578T breast) of the same molecule?
Its GI50 is 354 nM.

And the TGI (HS 578T breast)?
The TGI was 7890 nM.

What about the GI50 (U251 glioblastoma) of the same molecule?
Its GI50 is 506 nM.

What about the TGI (U251 glioblastoma) of the same molecule?
The TGI was 13000 nM.

What about the GI50 (SF-295 CNS) of the same molecule?
The GI50 was 1200 nM.

And the TGI (SF-295 CNS)?
The TGI was > 100000 nM.

And the GI50 (ACHN renal)?
The GI50 was 250 nM.

And the TGI (ACHN renal)?
Its TGI is 19100 nM.

What about the GI50 (K-562 leukemia) of the same molecule?
Its GI50 is 126 nM.

And the TGI (K-562 leukemia)?
The TGI was 284 nM.

And the GI50 (NCI-H226 lung)?
The GI50 was 299 nM.

What about the TGI (NCI-H226 lung) of the same molecule?
Its TGI is 15700 nM.

What about the GI50 (HOP-62 NSCLC) of the same molecule?
Its GI50 is 367 nM.

What about the TGI (HOP-62 NSCLC) of the same molecule?
Its TGI is 15900 nM.

What about the GI50 (SNB-75 CNS) of the same molecule?
Its GI50 is 361 nM.

What about the TGI (SNB-75 CNS) of the same molecule?
Its TGI is 15400 nM.

What about the GI50 (OVCAR-4 ovarian) of the same molecule?
The GI50 was 18300 nM.

What about the TGI (OVCAR-4 ovarian) of the same molecule?
The TGI was > 100000 nM.

What about the GI50 (OVCAR-8 ovarian) of the same molecule?
The GI50 was 489 nM.

And the TGI (OVCAR-8 ovarian)?
Its TGI is 48900 nM.

What about the GI50 (SK-OV-3 ovarian) of the same molecule?
Its GI50 is 303 nM.

What about the TGI (SK-OV-3 ovarian) of the same molecule?
Its TGI is 4160 nM.

And the GI50 (MDA-MB-435 melanoma)?
Its GI50 is 33.6 nM.

And the TGI (MDA-MB-435 melanoma)?
Its TGI is 27300 nM.

And the GI50 (SK-MEL-5 melanoma)?
The GI50 was 38.2 nM.

And the TGI (SK-MEL-5 melanoma)?
Its TGI is 4200 nM.

And the GI50 (SW-620 colon)?
The GI50 was 334 nM.

And the TGI (SW-620 colon)?
Its TGI is 15400 nM.

And the GI50 (DU-145 prostate)?
Its GI50 is 652 nM.

What about the TGI (DU-145 prostate) of the same molecule?
The TGI was 32400 nM.

And the GI50 (M14 melanoma)?
Its GI50 is < 10 nM.

What about the TGI (M14 melanoma) of the same molecule?
Its TGI is 36.4 nM.

What about the GI50 (TK-10 renal) of the same molecule?
Its GI50 is 599 nM.

What about the TGI (TK-10 renal) of the same molecule?
Its TGI is 4670 nM.

What about the GI50 (HCT-15 colon) of the same molecule?
Its GI50 is 525 nM.

What about the TGI (HCT-15 colon) of the same molecule?
The TGI was 38600 nM.

What about the GI50 (MCF7 breast) of the same molecule?
The GI50 was 7040 nM.

And the TGI (MCF7 breast)?
Its TGI is > 100000 nM.

What about the GI50 (CAKI-1 renal) of the same molecule?
Its GI50 is 134 nM.

What about the TGI (CAKI-1 renal) of the same molecule?
Its TGI is 1230 nM.

What about the GI50 (NCI-H23 lung) of the same molecule?
Its GI50 is 47.2 nM.

What about the TGI (NCI-H23 lung) of the same molecule?
The TGI was 443 nM.

And the GI50 (RXF 393 renal)?
Its GI50 is 440 nM.

And the TGI (RXF 393 renal)?
Its TGI is 10500 nM.

What about the GI50 (HOP-92 NSCLC) of the same molecule?
The GI50 was 166 nM.

What about the TGI (HOP-92 NSCLC) of the same molecule?
The TGI was 409 nM.

What about the GI50 (MOLT-4 leukemia) of the same molecule?
Its GI50 is 360 nM.

What about the TGI (MOLT-4 leukemia) of the same molecule?
Its TGI is 15400 nM.

And the GI50 (A549 NSCLC)?
Its GI50 is 711 nM.

And the TGI (A549 NSCLC)?
The TGI was 15200 nM.

What about the GI50 (SK-MEL-28 melanoma) of the same molecule?
Its GI50 is < 10 nM.

And the TGI (SK-MEL-28 melanoma)?
The TGI was 35.9 nM.

And the GI50 (NCI-H460 NSCLC)?
Its GI50 is 302 nM.

And the TGI (NCI-H460 NSCLC)?
Its TGI is 13800 nM.

What about the GI50 (HT29 colon) of the same molecule?
Its GI50 is 26.8 nM.

What about the TGI (HT29 colon) of the same molecule?
The TGI was 13100 nM.

What about the GI50 (BT-549 breast) of the same molecule?
The GI50 was 1260 nM.

And the TGI (BT-549 breast)?
The TGI was 19900 nM.

And the GI50 (KM12 colon)?
The GI50 was 501 nM.

What about the TGI (KM12 colon) of the same molecule?
Its TGI is 38300 nM.

And the GI50 (HCC-2998 colon)?
The GI50 was 127 nM.

And the TGI (HCC-2998 colon)?
The TGI was 11500 nM.

What about the GI50 (RPMI-8226 leukemia) of the same molecule?
Its GI50 is 162 nM.

What about the TGI (RPMI-8226 leukemia) of the same molecule?
Its TGI is 585 nM.

And the GI50 (UACC-62 melanoma)?
The GI50 was < 10 nM.

What about the TGI (UACC-62 melanoma) of the same molecule?
Its TGI is 51.7 nM.

What about the GI50 (SN12C renal) of the same molecule?
Its GI50 is 173 nM.

And the TGI (SN12C renal)?
Its TGI is 889 nM.

And the GI50 (NCI-H322M lung)?
The GI50 was 318 nM.

What about the TGI (NCI-H322M lung) of the same molecule?
Its TGI is 12900 nM.

And the GI50 (OVCAR-3 ovarian)?
Its GI50 is 1230 nM.

What about the TGI (OVCAR-3 ovarian) of the same molecule?
Its TGI is 55800 nM.
